Measurements taken from publication PMC9037111, “Structure-based design, synthesis, and biological evaluation of novel piperine–resveratrol hybrids as antiproliferative agents targeting SIRT-2” (RSC Advances, 2021).
Where two headings read alike, the source gives them in different places.

Experiments:
UO-31 = experiment: cells; design: species or system NCI-60 human tumour cell lines; NCI-60 one-dose screen at 10 uM, percent growth inhibition versus untreated control cells; settings: Homo sapiens, UO-31, growth inhibition, one dose
CCRF-CEM = experiment: cells; design: species or system NCI-60 human tumour cell lines; NCI-60 one-dose screen at 10 uM, percent growth inhibition versus untreated control cells; settings: Homo sapiens, CCRF-CEM, growth inhibition, one dose
NCI-H522 = experiment: cells; design: species or system NCI-60 human tumour cell lines; NCI-60 one-dose screen at 10 uM, percent growth inhibition versus untreated control cells; settings: Homo sapiens, NCI-H522, growth inhibition, one dose
K-562 = experiment: cells; design: species or system NCI-60 human tumour cell lines; NCI-60 one-dose screen at 10 uM, percent growth inhibition versus untreated control cells; settings: Homo sapiens, K562, growth inhibition, one dose
SF-539 = experiment: cells; design: species or system NCI-60 human tumour cell lines; NCI-60 one-dose screen at 10 uM, percent growth inhibition versus untreated control cells; settings: Homo sapiens, SF-539, growth inhibition, one dose
RPMI-8226 = experiment: cells; design: species or system NCI-60 human tumour cell lines; NCI-60 one-dose screen at 10 uM, percent growth inhibition versus untreated control cells; settings: Homo sapiens, RPMI-8226, growth inhibition, one dose
HL-60(TB) = experiment: cells; design: species or system NCI-60 human tumour cell lines; NCI-60 one-dose screen at 10 uM, percent growth inhibition versus untreated control cells; settings: Homo sapiens, HL-60, growth inhibition, one dose
SW-620 = experiment: cells; design: species or system NCI-60 human tumour cell lines; NCI-60 one-dose screen at 10 uM, percent growth inhibition versus untreated control cells; settings: Homo sapiens, SW-620, growth inhibition, one dose
SF-268 = experiment: cells; design: species or system NCI-60 human tumour cell lines; NCI-60 one-dose screen at 10 uM, percent growth inhibition versus untreated control cells; settings: Homo sapiens, SF-268, growth inhibition, one dose
MALME-3M = experiment: cells; design: species or system NCI-60 human tumour cell lines; NCI-60 one-dose screen at 10 uM, percent growth inhibition versus untreated control cells; settings: Homo sapiens, Malme-3M, growth inhibition, one dose
DU-145 = experiment: cells; design: species or system NCI-60 human tumour cell lines; NCI-60 one-dose screen at 10 uM, percent growth inhibition versus untreated control cells; settings: Homo sapiens, DU-145, growth inhibition, one dose
OVCAR-5 = experiment: cells; design: species or system NCI-60 human tumour cell lines; NCI-60 one-dose screen at 10 uM, percent growth inhibition versus untreated control cells; settings: Homo sapiens, OVCAR-5, growth inhibition, one dose
EKVX = experiment: cells; design: species or system NCI-60 human tumour cell lines; NCI-60 one-dose screen at 10 uM, percent growth inhibition versus untreated control cells; settings: Homo sapiens, EKVX, growth inhibition, one dose
OVCAR-8 = experiment: cells; design: species or system NCI-60 human tumour cell lines; NCI-60 one-dose screen at 10 uM, percent growth inhibition versus untreated control cells; settings: Homo sapiens, OVCAR-8, growth inhibition, one dose
SK-MEL-2 = experiment: cells; design: species or system NCI-60 human tumour cell lines; NCI-60 one-dose screen at 10 uM, percent growth inhibition versus untreated control cells; settings: Homo sapiens, SK-MEL-2, growth inhibition, one dose
SIRT2 = biological target: T1, SIRT2 (Homo sapiens, UniProt Q8IXJ6); experiment: sirtuin deacetylase inhibition assay, IC50; assay type: biochemical
T1 sequence (Q8IXJ6 2-389): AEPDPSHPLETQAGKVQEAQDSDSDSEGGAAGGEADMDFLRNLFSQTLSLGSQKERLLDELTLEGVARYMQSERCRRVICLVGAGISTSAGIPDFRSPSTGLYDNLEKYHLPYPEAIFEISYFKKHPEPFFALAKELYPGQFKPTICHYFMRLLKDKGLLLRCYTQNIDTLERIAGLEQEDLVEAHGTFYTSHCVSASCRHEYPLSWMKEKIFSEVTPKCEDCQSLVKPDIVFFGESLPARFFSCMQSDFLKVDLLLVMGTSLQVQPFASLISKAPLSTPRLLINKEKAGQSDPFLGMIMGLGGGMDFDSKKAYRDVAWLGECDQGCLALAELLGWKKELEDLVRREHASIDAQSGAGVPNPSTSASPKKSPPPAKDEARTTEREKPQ

[1] = read-out: Growth% inhibition / 5d
[2] = read-out: Growth% inhibition / 5a
[3] = read-out: Growth% inhibition / 5b
[4] = read-out: Growth% inhibition / 5e
[5] = read-out: Growth% inhibition / 5h

CN(C)c1ccc(C=NNC(=O)/C=C/C=C/c2ccc3c(c2)OCO3)cc1 (mixture of isomers) [5d, (2E,4E)-5-(Benzo[d][1,3]dioxol-5-yl)-N′-((E/Z)-4-(dimethylamino)-benzylidene)penta-2,4-dienehydrazide]
inhibition at 10 µM (UO-31; [1]): 23.7% | inhibition at 10 µM (CCRF-CEM; [1]): 20.5% | inhibition at 10 µM (NCI-H522; [1]): 11.7% | inhibition at 10 µM (K-562; [1]): 56.1%

O=C(/C=C/C=C/c1ccc2c(c1)OCO2)NN=Cc1ccc(O)cc1 [5a, (2E,4E)-5-(Benzo[d][1,3]dioxol-5-yl)-N′-((E,Z)-4-hydroxybenzylidene)penta-2,4-dienehydrazide]
inhibition at 10 µM (SF-539; [2]): 17.6% | inhibition at 10 µM (UO-31; [2]): 39.2% | inhibition at 10 µM (RPMI-8226; [2]): 16.9% | inhibition at 10 µM (CCRF-CEM; [2]): 32.4% | inhibition at 10 µM (NCI-H522; [2]): 22.8% | inhibition at 10 µM (K-562; [2]): 58.8% | inhibition at 10 µM (HL-60(TB); [2]): 44.1% | inhibition at 10 µM (SW-620; [2]): 19.8% | inhibition at 10 µM (SF-268; [2]): 17.1%

O=C(/C=C/C=C/c1ccc2c(c1)OCO2)N/N=C/c1ccc(O)cc1O [5b, (2E,4E)-5-(Benzo[d][1,3]dioxol-5-yl)-N′-((E)-2,4-dihydroxybenzylidene)penta-2,4-dienehydrazide]
inhibition at 10 µM (SF-539; [3]): 85.7% | inhibition at 10 µM (UO-31; [3]): 88.6% | inhibition at 10 µM (MALME-3M; [3]): 59.7% | inhibition at 10 µM (DU-145; [3]): 50% | inhibition at 10 µM (RPMI-8226; [3]): 52.3% | inhibition at 10 µM (CCRF-CEM; [3]): 81% | inhibition at 10 µM (OVCAR-5; [3]): 57.5% | inhibition at 10 µM (EKVX; [3]): 79.8% | inhibition at 10 µM (NCI-H522; [3]): 78.9% | inhibition at 10 µM (K-562; [3]): 88.4% | inhibition at 10 µM (SW-620; [3]): 73.5% | inhibition at 10 µM (OVCAR-8; [3]): 77.2% | inhibition at 10 µM (SK-MEL-2; [3]): 47.2% | inhibition at 10 µM (SF-268; [3]): 75.6% | IC50 (SIRT2): 21 ± 3 µM

CCN(CC)c1ccc(/C=N/NC(=O)/C=C/C=C/c2ccc3c(c2)OCO3)c(O)c1 [5e, (2E,4E)-5-(Benzo[d][1,3]dioxol-5-yl)-N′-((E)-4-(diethylamino)-2-hydroxybenzylidene)penta-2,4-dienehydrazide]
inhibition at 10 µM (SF-539; [4]): 77.3% | inhibition at 10 µM (UO-31; [4]): 75% | inhibition at 10 µM (MALME-3M; [4]): 43.5% | inhibition at 10 µM (DU-145; [4]): 46.8% | inhibition at 10 µM (RPMI-8226; [4]): 46.4% | inhibition at 10 µM (CCRF-CEM; [4]): 78.3% | inhibition at 10 µM (OVCAR-5; [4]): 39.1% | inhibition at 10 µM (EKVX; [4]): 47.8% | inhibition at 10 µM (NCI-H522; [4]): 87.5% | inhibition at 10 µM (K-562; [4]): 82.4% | inhibition at 10 µM (HL-60(TB); [4]): 97.3% | inhibition at 10 µM (SW-620; [4]): 67.7% | inhibition at 10 µM (OVCAR-8; [4]): 67.1% | inhibition at 10 µM (SK-MEL-2; [4]): 34.3% | inhibition at 10 µM (SF-268; [4]): 66.3% | IC50 (SIRT2): 23 ± 2 µM

C/C(=N\NC(=O)/C=C/C=C/c1ccc2c(c1)OCO2)c1ccc(Br)cc1 [5h, (2E,4E)-5-(Benzo[d][1,3]dioxol-5-yl)-N′-((E)-1-(4-bromophenyl)ethylidene)penta-2,4-dienehydrazide]
inhibition at 10 µM (SF-539; [5]): 12.5% | inhibition at 10 µM (UO-31; [5]): 44.9% | inhibition at 10 µM (MALME-3M; [5]): 28.7% | inhibition at 10 µM (DU-145; [5]): 44% | inhibition at 10 µM (RPMI-8226; [5]): 19.4% | inhibition at 10 µM (CCRF-CEM; [5]): 44.3% | inhibition at 10 µM (OVCAR-5; [5]): 10.7% | inhibition at 10 µM (EKVX; [5]): 25% | inhibition at 10 µM (NCI-H522; [5]): 19.9% | inhibition at 10 µM (K-562; [5]): 40.1% | inhibition at 10 µM (HL-60(TB); [5]): 15.9% | inhibition at 10 µM (SW-620; [5]): 25.4% | inhibition at 10 µM (OVCAR-8; [5]): 24.7% | inhibition at 10 µM (SK-MEL-2; [5]): 11% | inhibition at 10 µM (SF-268; [5]): 32.5% | IC50 (SIRT2): 26 ± 3 µM
